Results taken from patent publication US7671054B1, “Reverse-turn mimetics and method relating thereto” (Choongwae Pharma Corporation, priority 2001, dated 2010).

Tested on: TCF4/β-catenin transcription (TOPFlash) in SW480 cells
Assay: Reporter gene assay (TOPFlash luciferase)
Assay type: cell-based
Conditions: Homo sapiens, SW480, Table 4; Reporter gene assay as described in Example 6; read-out: IC50
Experimental: SW480 cells were transfected with the usage of Superfect™ transfect reagent (Qiagen, 301307). Cells were trypsinized briefly 1 day before transfection and plated on 6 well plate (5×10^5 cells/well) so that they were 50-80% confluent on the day of transfection.
Four microgram (TOPFlash) and one microgram (pRL-null) of DNAs were diluted in 150 μl of serum-free medium, and 30 μl of Superfect™ transfect reagent was added. The DNA-Superfect mixture was incubated at room temperature for 15 min, and then, 1 ml of 10% FBS DMEM was added to this complex for an additional 3 hours of incubation. While complexes were forming, cells were washed with PBS twice without antibiotics.
The DNA-Superfect™ transfect reagent complexes were applied to the cells before incubating at 37° C. at 5% CO2 for 3 hours. After incubation, recovery medium with 10% FBS was added to bring the final volume to 1.18 ml. After 3 hours incubation, the cells were harvested and reseeded to 96 well plate (3×10^4 cells/well). After overnight incubation at 37° C. at 5% CO2, the cells were treated with Compound A for 24 hours. Finally, the activity was checked by means of luciferase assay (Promega, E1960).

SMILES: CN1CC(=O)N2[C@@H](Cc3ccc(O)cc3)C(=O)N(Cc3ccccc3OC(F)(F)F)C[C@@H]2N1C(=O)NCc1ccccc1 [Compound 30]
- IC50: 7.5 µM

SMILES: CCCN1CC(=O)N2[C@@H](Cc3ccc(O)cc3)C(=O)N(Cc3cc(N(C)C(C)C)cc(C(F)(F)F)c3)C[C@@H]2N1C(=O)NCc1ccccc1 [Compound 155]
- IC50: 30.5 ± 4.1 µM

SMILES: C=CCN1CC(=O)N2[C@@H](Cc3ccc(OP(=O)(O)O)cc3)C(=O)N(Cc3ccc(Cl)c(N(C)C)c3)C[C@@H]2N1C(=O)NCc1ccccc1 [Compound 161]
- IC50: 1.8 ± 0.2 µM

SMILES: C[C@H]1[C@H]2N(C(=O)CN(C)N2C(=O)NCc2ccccc2)[C@@H](Cc2ccc(O)cc2)C(=O)N1Cc1ccc(Cl)c(N(C)C)c1 [Compound 80]
- IC50: 7.9 ± 2 µM

SMILES: CN1CC(=O)N2[C@@H](Cc3ccc(O)cc3)C(=O)N(Cc3cccc4cnn(Cc5ccc(N)cc5)c34)C[C@@H]2N1C(=O)NCc1ccccc1 [Compound 104]
- IC50: 4.6 ± 0.4 µM

SMILES: C=CCN1CC(=O)N2[C@@H](Cc3ccc(O)cc3)C(=O)N(Cc3cc(F)c(F)cc3N(C)C)C[C@@H]2N1C(=O)NCc1ccccc1 [Compound 162]
- IC50: 1.8 ± 0.6 µM

SMILES: C=CCN1CC(=O)N2[C@@H](Cc3ccc(O)cc3)C(=O)N(Cc3ccc4ncsc4c3)C[C@@H]2N1C(=O)NCc1ccccc1 [Compound 142]
- IC50: 1.6 ± 0.4 µM

SMILES: CN(C)c1ccccc1CN1C[C@H]2N(C(=O)CN(C)N2C(=O)NCc2ccccc2)[C@@H](Cc2ccc(O)cc2)C1=O [Compound 43]
- IC50: 5.2 µM

SMILES: CN1CC(=O)N2[C@@H](Cc3ccc(O)cc3)C(=O)N(Cc3cccc4cn(Cc5cccc(N)c5)nc34)C[C@@H]2N1C(=O)NCc1ccccc1 [Compound 91]
- IC50: 2.9 ± 0.2 µM

SMILES: Cc1cccc(CN2C[C@H]3N(C(=O)CN(C)N3C(=O)NCc3ccccc3)[C@@H](Cc3ccc(O)cc3)C2=O)c1N(C)C [Compound 48]
- IC50: 10.9 µM

SMILES: C=CCN1CC(=O)N2[C@@H](Cc3ccc(O)cc3)C(=O)N(Cc3cccc4sc(Cl)nc34)C[C@@H]2N1C(=O)NCc1ccccc1 [Compound 217]
- IC50: < 1.6 µM

SMILES: CN1CC(=O)N2C(CN(Cc3cccc(C(F)(F)F)c3)C(=O)[C@@H]2Cc2ccc(O)cc2)N1C(=O)NCc1ccccc1 (stereo partly drawn) [Compound 15]
- IC50: 4.2 µM

SMILES: CN1CC(=O)N2[C@@H](Cc3ccc(O)cc3)C(=O)N(Cc3ccc4cccnc4c3)C[C@@H]2N1C(=O)NCc1ccccc1 [Compound 95]
- IC50: 13.3 ± 1.4 µM

SMILES: C=CCN1CC(=O)N2[C@@H](Cc3ccc(O)cc3)C(=O)N(Cc3ccc(F)cc3F)[C@@H](C)[C@@H]2N1C(=O)NCc1ccccc1 [Compound 177]
- IC50: 5.3 ± 0.4 µM

SMILES: C=CCN1CC(=O)N2[C@@H](Cc3ccc(O)cc3)C(=O)N(Cc3cccc(OC(F)(F)F)c3)C[C@@H]2N1C(=O)NCc1ccccc1 [Compound 206]
- IC50: 1.3 ± 0.1 µM

SMILES: COC(=O)c1ccccc1Cn1ncc2c(CN3C[C@H]4N(C(=O)CN(C)N4C(=O)NCc4ccccc4)[C@@H](Cc4ccc(O)cc4)C3=O)cccc21 [Compound 99]
- IC50: 2.4 ± 0.3 µM

SMILES: CN(C)c1cccc(F)c1CN1C[C@H]2N(C(=O)CN(C)N2C(=O)NCc2ccccc2)[C@@H](Cc2ccc(O)cc2)C1=O [Compound 42]
- IC50: 18.2 µM

SMILES: [2H]c1cc(C[C@H]2C(=O)N(Cc3cccc4ccccc34)C[C@H]3N2C(=O)CN(C)N3C(=O)NCc2ccccc2)cc([2H])c1O [Compound 166]
- IC50: 3.3 ± 0.2 µM

SMILES: C=CCN1CC(=O)N2[C@@H](Cc3ccc(O)cc3)C(=O)N(Cc3cccc(N(C)C(=O)CCCCC)c3)C[C@@H]2N1C(=O)NCc1ccccc1 [Compound 194]
- IC50: 3.2 ± 0.4 µM

SMILES: CN1CC(=O)N2[C@@H](Cc3ccc(O)cc3)C(=O)N(Cc3ccc(F)cc3F)C[C@@H]2N1C(=O)NCc1ccc(Br)cc1 [Compound 201]
- IC50: 5.8 ± 0.4 µM

SMILES: C#CCNC(=O)N1[C@H]2CN(Cc3cccc4ccccc34)C(=O)[C@H](Cc3ccc(O)cc3)N2C(=O)CN1C [Compound 102]
- IC50: 62 ± 17 µM

SMILES: CCN(CC)c1cc(F)ccc1[C@H](C)N1C[C@H]2N(C(=O)CN(C)N2C(=O)NCc2ccccc2)[C@@H](Cc2ccc(O)cc2)C1=O [Compound 64]
- IC50: 25.3 ± 6.6 µM

SMILES: C#CCN1CC(=O)N2[C@@H](Cc3ccc(O)cc3)C(=O)N(Cc3cccc(OCCN4CCOCC4)c3)C[C@@H]2N1C(=O)NCc1ccccc1 [Compound 131]
- IC50: 2.2 ± 0.3 µM

SMILES: C=CCN1CC(=O)N2[C@@H](Cc3ccc(O)cc3)C(=O)N(Cc3cc(C)cc4c3N(C)CCO4)C[C@@H]2N1C(=O)NCc1ccccc1 [Compound 167]
- IC50: 1.3 ± 0.1 µM

SMILES: CN1CC(=O)N2[C@@H](CN(Cc3cccc4ccccc34)C(=O)[C@H]2c2ccc(O)cc2)N1C(=O)NCc1ccccc1 [Compound 36]
- IC50: 12.5 µM

SMILES: CN1CC(=O)N2C(CN(Cc3cccc(F)c3)C(=O)[C@@H]2Cc2ccc(O)cc2)N1C(=O)NCc1ccccc1 (stereo partly drawn) [Compound 9]
- IC50: 6.7 µM

SMILES: C=CCN1CC(=O)N2[C@@H](Cc3ccc(O)c(F)c3)C(=O)N(Cc3cccc4scnc34)C[C@@H]2N1C(=O)NCc1ccccc1 [Compound 216]
- IC50: 1.6 ± 0.2 µM

SMILES: C=CCN1CC(=O)N2[C@@H](Cc3ccc(O)cc3)C(=O)N(Cc3cccc(OC)c3OC)C[C@@H]2N1C(=O)NCc1ccccc1 [Compound 214]
- IC50: 0.6 ± 0.2 µM

SMILES: CCCN1CC(=O)N2[C@@H](Cc3ccc(O)cc3)C(=O)N(Cc3ccc(Cl)c4cccnc34)C[C@@H]2N1C(=O)NCc1ccccc1 [Compound 148]
- IC50: 2.6 ± 0.3 µM

SMILES: CCN1CC(=O)N2[C@@H](Cc3ccc(O)cc3)C(=O)N(Cc3ccc(Cl)c(N(C)C)c3)C[C@@H]2N1C(=O)NCc1ccccc1 [Compound 125]
- IC50: 9.8 ± 0.7 µM

SMILES: Cc1ccc([C@@H](C)N2C[C@H]3N(C(=O)CN(C)N3C(=O)NCc3ccccc3)[C@@H](Cc3ccc(O)cc3)C2=O)cc1 [Compound 41]
- IC50: 13.6 µM

SMILES: C=CCN1CC(=O)N2[C@@H](Cc3ccc(O)cc3)C(=O)N([C@@H](C)c3ccc(Cl)c4cccnc34)C[C@@H]2N1C(=O)NCc1ccccc1 [Compound 185]
- IC50: 23.4 ± 1.9 µM

SMILES: C=CCN1CC(=O)N2[C@@H](CN([C@H](C)c3ccc(Cl)c4cccnc34)C(=O)[C@@H]2Cc2ccc(O)cc2)N1C(=O)NCc1ccccc1 [Compound 189]
- IC50: 8.7 ± 0.4 µM

SMILES: CC(C)N(C)c1cc([C@@H](C)N2C[C@H]3N(C(=O)CN(C)N3C(=O)NCc3ccccc3)[C@@H](Cc3ccc(O)cc3)C2=O)ccc1F [Compound 62]
- IC50: 9.7 ± 1.7 µM

SMILES: C=CCN1CC(=O)N2[C@@H](Cc3ccc(O)cc3)C(=O)N(Cc3ccc(F)cc3F)C[C@@H]2N1C(=O)NCc1ccc(Cl)c(Cl)c1 [Compound 179]
- IC50: 2.3 ± 0.2 µM

SMILES: C=CCN1CC(=O)N2[C@@H](Cc3ccc(OP(=O)(O)O)cc3)C(=O)N(Cc3ccc4c(c3)OCCO4)C[C@@H]2N1C(=O)NCc1ccccc1 [Compound 212]
- IC50: 1.3 ± 0.3 µM

SMILES: CN1CC(=O)N2[C@@H](Cc3ccc(O)cc3)C(=O)N(Cc3ccccc3C(F)(F)F)C[C@@H]2N1C(=O)NCc1ccccc1 [Compound 32]
- IC50: 4.1 µM

SMILES: CCCN1CC(=O)N2[C@@H](Cc3ccc(O)cc3)C(=O)N(Cc3ccc(Cl)c(N(C)C)c3)C[C@@H]2N1C(=O)NCc1ccccc1 [Compound 126]
- IC50: 10.3 ± 1.5 µM

SMILES: C#CCN1CC(=O)N2[C@@H](Cc3ccc(O)cc3)C(=O)N(Cc3ccc(C)c(N4CCOCC4)c3)C[C@@H]2N1C(=O)NCc1ccccc1 [Compound 134]
- IC50: 4.5 ± 0.9 µM

SMILES: O=C1[C@H](Cc2ccc(O)cc2)N2C(=O)CON(C(=O)NCc3ccccc3)[C@H]2CN1Cc1cccc2cccnc12 [Compound 119]
- IC50: 8.8 ± 1.3 µM

SMILES: C=CCN1CC(=O)N2[C@@H](CN([C@H](C)c3ccc(F)cc3F)C(=O)[C@@H]2Cc2ccc(O)cc2)N1C(=O)NCc1ccccc1 [Compound 188]
- IC50: 4.4 ± 0.2 µM

SMILES: CCCN(C)c1cccc(CN2C[C@H]3N(C(=O)CN(C)N3C(=O)NCc3ccccc3)[C@@H](Cc3ccc(O)cc3)C2=O)c1 [Compound 55]
- IC50: 7.2 ± 1.4 µM

SMILES: CN1CC(=O)N2[C@@H](Cc3ccc(O)cc3)C(=O)N(Cc3cccc(N4CCCC4=O)c3)C[C@@H]2N1C(=O)NCc1ccccc1 [Compound 150]
- IC50: 12.7 ± 0.7 µM

SMILES: C=CCN1CC(=O)N2[C@@H](Cc3ccc(O)cc3)C(=O)N(Cc3ccc(F)cc3F)C[C@@H]2N1C(=O)NCc1ccc(F)cc1 [Compound 175]
- IC50: 5.4 ± 0.5 µM

SMILES: C=CCN1CCN2[C@@H](Cc3ccc(O)cc3)C(=O)N(Cc3ccc(OC(F)(F)F)cc3)C[C@@H]2N1C(=O)NCc1ccccc1 [Compound 211]
- IC50: 2.3 ± 0.2 µM

SMILES: C[C@H](c1cccc(N(C)C)c1)N1C[C@H]2N(C(=O)CN(C)N2C(=O)NCc2ccccc2)[C@@H](Cc2ccc(O)cc2)C1=O [Compound 61]
- IC50: 25.8 µM

SMILES: C=CCN1CC(=O)N2[C@@H](Cc3ccc(OP(=O)(O)O)cc3)C(=O)N(Cc3cccc4scnc34)C[C@@H]2N1C(=O)NCc1ccccc1 [Compound 197]
- IC50: 0.7 ± 0.2 µM

SMILES: C#CCN1CC(=O)N2[C@@H](Cc3ccc(O)cc3)C(=O)N(Cc3ccc(Cl)c4cccnc34)C[C@@H]2N1C(=O)NCc1ccccc1 [Compound 138]
- IC50: 1 ± 0.2 µM

SMILES: Cc1ccc(CC2C(=O)N(CCc3ccccc3)CC3N2C(=O)CN(C)N3C(=O)Nc2ccc(C(F)(F)F)cc2)cc1 (stereo not drawn) [Compound 2]
- IC50: 12.6 µM

SMILES: CN1CC(=O)N2[C@@H](Cc3ccc(O)cc3)C(=O)N(Cc3ccccc3N3CCOCC3)C[C@@H]2N1C(=O)NCc1ccccc1 [Compound 97]
- IC50: 12.6 ± 1.2 µM

SMILES: CN1CC(=O)N2[C@@H](Cc3ccc(O)cc3)C(=O)N(Cc3cccc4occc34)C[C@@H]2N1C(=O)NCc1ccccc1 [Compound 40]
- IC50: 7 µM

SMILES: CN1CC(=O)N2[C@@H](Cc3ccc(O)cc3)C(=O)N(Cc3cccc4ncccc34)C[C@@H]2N1C(=O)NCc1ccccc1 [Compound 33]
- IC50: 13 µM

SMILES: [2H]C([2H])(c1ccc(O)cc1)[C@H]1C(=O)N(Cc2cccc3ccccc23)C[C@H]2N1C(=O)CN(C)N2C(=O)NCc1ccccc1 [Compound 165]
- IC50: 3.9 ± 0.3 µM

SMILES: CN1CC(=O)N2[C@@H](Cc3ccc(O)cc3)C(=O)N(Cc3cccc(N4CCCC4)c3)C[C@@H]2N1C(=O)NCc1ccccc1 [Compound 63]
- IC50: 4.1 ± 0.5 µM
